# Measurements published in patent US20260231994A1, “TASTE-ENHANCING COMPOSITION, METHOD FOR PRODUCING SAME, FOOD PRODUCT, AND METHOD FOR ENHANCING TASTE OF FOOD PRODUCT” (HOUSE FOODS GROUP INC., priority 2023, published 2026).
# Columns and labels:
# Format in all cases: in vivo
# [1] = Experiment 6 sensory evaluation of cyclic dipeptides, “top sharp saltiness”
# Procedure, shortened: (§1)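 Reduced-sodium curry roux (44 g in 300 g hot water) was spiked with cyclic dipeptide solutions matching heat-treated coriander or paprika levels, at 0.5% or 1.0% (w/w) final. Three evaluators scored each sample against unspiked reduced-sodium and common roux. Mean scores were graded F to AA.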
# [2] = Experiment 6 sensory evaluation of cyclic dipeptides, “middle fullness (enhanced thickness)”
# Procedure, shortened: as §1
# [3] = Experiment 6 sensory evaluation of cyclic dipeptides, “boosting of last flavor (aftertaste)”
# Procedure, shortened: as §1
# [4] = Additive amount coriander 0.5% (heat-treated coriander equivalent aqueous solution, final 0.5% (w/w)), reduced-sodium curry roux
# [5] = Additive amount coriander 0.5%, reduced-sodium curry roux
# [6] = heat-treated coriander equivalent aqueous solution of cyclic dipeptide, final 1.0% (w/w) in reduced-sodium curry roux dispersion
# [7] = heat-treated coriander equivalent aqueous solution of cyclic dipeptide, final 1.0% (w/w) in reduced-sodium curry roux dispersion, 3 evaluators
# [8] = Additive amount paprika 0.5% (heat-treated paprika equivalent aqueous solution, final 0.5% (w/w)), reduced-sodium curry roux
# [9] = Additive amount paprika 0.5%, reduced-sodium curry roux
# [10] = heat-treated paprika equivalent aqueous solution of cyclic dipeptide, final 1.0% (w/w) in reduced-sodium curry roux dispersion
# [11] = heat-treated paprika equivalent aqueous solution of cyclic dipeptide, final 1.0% (w/w) in reduced-sodium curry roux dispersion, 3 evaluators
Substance,"Top sharp saltiness Average [1, 4] [points]","Top sharp saltiness Evaluation [1, 5]","Top sharp saltiness Evaluation [1, 6]","Top sharp saltiness Average [1, 7] [points]","Middle fullness Average [2, 5] [points]","Middle fullness Evaluation [2, 5]","Middle fullness Evaluation [2, 6]","Middle fullness Average [2, 7] [points]","Bosting of last flavor Average [3, 5] [points]","Bosting of last flavor Evaluation [3, 5]","Bosting of last flavor Evaluation [3, 6]","Bosting of last flavor Average [3, 7] [points]","Top sharp saltiness Average [1, 8] [points]","Top sharp saltiness Evaluation [1, 9]","Top sharp saltiness Evaluation [1, 10]","Top sharp saltiness Average [1, 11] [points]","Middle fullness Average [2, 9] [points]","Middle fullness Evaluation [2, 9]","Middle fullness Evaluation [2, 10]","Middle fullness Average [2, 11] [points]",also measured
cyclic (Gly-His) [Coriander ID 4],2.8,A (“A” when it was 2.6 or higher and 2.9 or lower),B (“B” when it was 2.0 or higher and 2.5 or lower),2.3,3.3,AA (“AA” when it was 3.0 or higher),A (“A” when it was 2.6 or higher and 2.9 or lower),2.7,3.5,AA (“AA” when it was 3.0 or higher),B (“B” when it was 2.0 or higher and 2.5 or lower),2.5,–,–,–,–,–,–,–,–,–
cyclic (Ala-Asp) [Coriander ID 58],–,–,–,–,–,–,–,–,–,–,–,–,3.0,AA (“AA” when it was 3.0 or higher),AA (“AA” when it was 3.0 or higher),3.0,3.3,AA (“AA” when it was 3.0 or higher),AA (“AA” when it was 3.0 or higher),3.0,"Bosting of last flavor Average [3, 9]: 3.2 points; Bosting of last flavor Evaluation [3, 9]: AA (“AA” when it was 3.0 or higher); Bosting of last flavor Evaluation [3, 10]: AA (“AA” when it was 3.0 or higher); Bosting of last flavor Average [3, 11]: 3.2 points"
cyclic (Leu/Ile-Leu/Ile) [Coriander ID 1],–,–,–,–,–,–,–,–,–,–,–,–,2.7,A (“A” when it was 2.6 or higher and 2.9 or lower),C (“C” when it was 1.1 or higher and 1.9 or lower),1.7,2.7,A (“A” when it was 2.6 or higher and 2.9 or lower),C (“C” when it was 1.1 or higher and 1.9 or lower),1.8,"Bosting of last flavor Average [3, 9]: 3.0 points; Bosting of last flavor Evaluation [3, 9]: AA (“AA” when it was 3.0 or higher); Bosting of last flavor Evaluation [3, 10]: B (“B” when it was 2.0 or higher and 2.5 or lower); Bosting of last flavor Average [3, 11]: 2.3 points"
cyclic (Tyr-Asp),–,–,–,–,–,–,–,–,–,–,–,–,2.1,B (“B” when it was 2.0 or higher and 2.5 or lower),B (“B” when it was 2.0 or higher and 2.5 or lower),2.5,2.1,B (“B” when it was 2.0 or higher and 2.5 or lower),A (“A” when it was 2.6 or higher and 2.9 or lower),2.8,"Bosting of last flavor Average [3, 9]: 2.1 points; Bosting of last flavor Evaluation [3, 9]: B (“B” when it was 2.0 or higher and 2.5 or lower); Bosting of last flavor Evaluation [3, 10]: A (“A” when it was 2.6 or higher and 2.9 or lower); Bosting of last flavor Average [3, 11]: 2.8 points"
cyclic (Leu/Ile-His) [Coriander ID 52],3.3,AA (“AA” when it was 3.0 or higher),B (“B” when it was 2.0 or higher and 2.5 or lower),2.3,3.2,AA (“AA” when it was 3.0 or higher),A (“A” when it was 2.6 or higher and 2.9 or lower),2.7,2.8,A (“A” when it was 2.6 or higher and 2.9 or lower),AA (“AA” when it was 3.0 or higher),3.0,–,–,–,–,–,–,–,–,–
cyclic (Glu-Leu/Ile) [Coriander ID 47],2.3,B (“B” when it was 2.0 or higher and 2.5 or lower),B (“B” when it was 2.0 or higher and 2.5 or lower),2.2,2.8,A (“A” when it was 2.6 or higher and 2.9 or lower),B (“B” when it was 2.0 or higher and 2.5 or lower),2.3,3.0,AA (“AA” when it was 3.0 or higher),A (“A” when it was 2.6 or higher and 2.9 or lower),2.7,–,–,–,–,–,–,–,–,–
cyclic (Phe-Tyr) [Coriander ID 41],–,–,–,–,–,–,–,–,–,–,–,–,1.8,C (“C” when it was 1.1 or higher and 1.9 or lower),A (“A” when it was 2.6 or higher and 2.9 or lower),2.7,2.0,B (“B” when it was 2.0 or higher and 2.5 or lower),AA (“AA” when it was 3.0 or higher),3.0,"Bosting of last flavor Average [3, 9]: 2.0 points; Bosting of last flavor Evaluation [3, 9]: B (“B” when it was 2.0 or higher and 2.5 or lower); Bosting of last flavor Evaluation [3, 10]: A (“A” when it was 2.6 or higher and 2.9 or lower); Bosting of last flavor Average [3, 11]: 2.8 points"
cyclic (Gly-Tyr) [Coriander ID 44],1.7,C (“C” when it was 1.1 or higher and 1.9 or lower),B (“B” when it was 2.0 or higher and 2.5 or lower),2.2,2.0,B (“B” when it was 2.0 or higher and 2.5 or lower),B (“B” when it was 2.0 or higher and 2.5 or lower),2.2,2.3,B (“B” when it was 2.0 or higher and 2.5 or lower),A (“A” when it was 2.6 or higher and 2.9 or lower),2.8,–,–,–,–,–,–,–,–,–
cyclic (Glu-His) [Coriander ID 6],3.2,AA (“AA” when it was 3.0 or higher),AA (“AA” when it was 3.0 or higher),4.0,3.3,AA (“AA” when it was 3.0 or higher),AA (“AA” when it was 3.0 or higher),3.8,3.0,AA (“AA” when it was 3.0 or higher),AA (“AA” when it was 3.0 or higher),3.7,–,–,–,–,–,–,–,–,–
cyclic (Val-Ser) [Coriander ID 59],–,–,–,–,–,–,–,–,–,–,–,–,2.5,B (“B” when it was 2.0 or higher and 2.5 or lower),C (“C” when it was 1.1 or higher and 1.9 or lower),1.8,2.7,A (“A” when it was 2.6 or higher and 2.9 or lower),B (“B” when it was 2.0 or higher and 2.5 or lower),2.2,"Bosting of last flavor Average [3, 9]: 2.7 points; Bosting of last flavor Evaluation [3, 9]: A (“A” when it was 2.6 or higher and 2.9 or lower); Bosting of last flavor Evaluation [3, 10]: A (“A” when it was 2.6 or higher and 2.9 or lower); Bosting of last flavor Average [3, 11]: 2.8 points"
cyclic (Ala-His) [Coriander ID 10],2.7,A (“A” when it was 2.6 or higher and 2.9 or lower),B (“B” when it was 2.0 or higher and 2.5 or lower),2.3,3.2,AA (“AA” when it was 3.0 or higher),AA (“AA” when it was 3.0 or higher),3.3,3.3,AA (“AA” when it was 3.0 or higher),AA (“AA” when it was 3.0 or higher),3.7,–,–,–,–,–,–,–,–,–
cyclic (Gly-Thr) [Coriander ID 60],3.3,AA (“AA” when it was 3.0 or higher),B (“B” when it was 2.0 or higher and 2.5 or lower),2.0,3.2,AA (“AA” when it was 3.0 or higher),A (“A” when it was 2.6 or higher and 2.9 or lower),2.7,3.2,AA (“AA” when it was 3.0 or higher),B (“B” when it was 2.0 or higher and 2.5 or lower),2.5,–,–,–,–,–,–,–,–,–
